“Also recorded” adds a separate entry of the source. Where no end group is shown, it is not given here.

The source of these data is patent US6682897B1, “Peptides derived from human heat protein 60 for treatment of diabetes, compositions, methods and kits” (Yeda Research and Development Co. Ltd., priority 1995, dated 2004).

One experiment deals with female NOD mice. Briefly: Peptide treatment of 10-week old NOD mice, development of diabetes (Example 4, FIG. 4). The note with it: single s.c. injection in IFA at 10 weeks, observed through 8 months of age, vs IFA alone. The experiment is classed as in vivo. How it is done:
FIG. 4 is a graph showing the effect of peptide administration on diabetes. Groups of 10-20 NOD mice were treated at 10 weeks of age with 100 μg of mouse p12, p277, p35-GAD or MT-p278 in IFA, or IFA alone. The mice were bled monthly and followed for the onset of hyperglycemia.
(iv) Treatment and follow-up. Peptides, […], in PBS, were emulsified with an equal volume of IFA and injected subcutaneously into 10-week-old NOD females as described (Elias and Cohen, 1995). Control mice received an equal volume of PBS emulsified in IFA. The mice were monitored monthly for non-fasting blood glucose at 10am using the Blood Glucose Sensor (MediSense. Inc., Waltham, Mass.). Mice with a blood glucose greater than 11.1 mmol/L were considered to be diabetic; this concentration of glucose was greater than 3 standard deviations above the mean blood glucose concentration measured in non-diabetic mice (Elias and Cohen, 1995). Histological examination of the islets of the pancreas was done on sections stained with hematoxylin and eosin. The sections were scored independently by two observers who both were unaware of the identity of the groups. The chi square test was used to ascertain the statistical differences between the various treatments.
Following a protocol shown to be effective with mouse p277(Elias et al., 1991; Elias and Cohen, 1994; Elias and Cohen, 1995), groups of 10-week old female NOD mice were treatedby a single subcutaneous injection of each peptide ([…]) emulsified in IFA.

The test system of experiment [1] is serum antibodies of the IgG1, IgG2a and IgG2b isotypes. Description: Serum anti-peptide antibody isotypes by ELISA in peptide-treated NOD mice (FIG. 5). The experiment is classed as in vivo. The settings on record: for antibody titers of the IgG1 and IgG2b isotypes: peptide-treated NOD mice, sera diluted 1:50, ELISA. How it is done:
FIGS. 5A-5D show the IgG1, IgG2a and IgG2b antibody isotypes in response to peptide treatment. Mice were treated as described in the legend to FIG. 4. Individual samples were analyzed for antibodies to mouse p12 A; p277 B; GAD-p35 C; and MT-p278 D, of the IgG1, IgG2a and IgG2b isotypes. Similar effects were obtained in two experiments. The results are presented as the absorbance at 405 nm (OD) of 10 individual mice in each group. The level of significance of the prevalence of IgG1 and IgG2b antibodies in groups A and B compared to C and D is P<0.001. The differences between the levels of IgG1 and IgG2b antibodies compared to the IgG2a antibodies in groups A and B were significant (P<0.001). There was no cross-reactivity between the antibodies (not shown).
(v) Serum Antibodies. Mice were bled monthly to detect antibody responses. The ELISA assay was done as described (Elias et al., 1991). Briefly, flat bottom Maxi-sorb plates (Nunc, Roskilde, Denmark) were coated, for the detection of anti-peptide antibodies, with […] of peptide in PBS, at a concentration of […] for 2 h at room temperature followed by over night incubation at 4° C. After incubation with peptide, the plates were washed and blocked for 2 h at 37° C. with 7% BSA (Sigma) in PBS. Sera were diluted 1:50 then added for 2 h at 37° C., followed by incubation for 2 h with […] of goat anti-mouse IgG (gamma chain Fc specific) conjugated to alkaline phosphatase (Jackson, Philadelphia, Pa.). After washing, the plates were incubated with the substrate, diethanolamine (Sigma) and read using an ELISA reader at 405 nm.
Successful treatment of STZ-induced diabetes with mouse peptide p277 was associated with the appearance of anti-peptide antibodies predominantly of the IgG1 and IgG2b isotypes (Elias and Cohen, 1996). The peptide-treated NOD mice for their serum antibodies was therefore examined. […] Thus, effectiveness in inhibiting diabetes was associated with the induction of an antibody response mainly of the IgG1 and IgG2b isotypes.
For orientation: ELISA stands for enzyme-linked immunosorbent assay.

A further experiment deals with draining lymph nodes. Briefly: T-cell proliferative responses of NOD mice to peptides (Example 4, FIG. 3). The class given is cell-based. The settings on record: NOD mice immunized with 25 μg peptide in IFA, lymph nodes 10 days later, 20 μg/ml. How it is done:
FIG. 3 is a graph showing T-cell proliferative responses of NOD mice to peptides. Groups of three NOD mice were […] with peptides mouse p12, mouse p277, GAD-p35 and MT-p278 in IFA each at a dose of 25 μg in IFA. The draining lymph nodes were removed 10 days later and assayed for proliferative responses to the corresponding peptide at the concentrations of 5, 10, 20, and 50 μg/ml. The stimulation at the optimal concentration of 20 μg/ml is shown. The following ranges of cpm were obtained in medium controls: mouse p12, 881; mouse p277, 1243; MT-p278, 698 and GAD-p35 1430. Peptide mouse p38 is a peptide derived from mouse hsp60 (556-573), which has no sequence homology with the tested peptides and serves as a negative control of specificity. […] Each assay was done in triplicates for which the SD values are indicated by the bars. There was no cross-reactivity between the peptides (not shown).
(iii) T-Cell proliferation to peptides. Mice. Nine week old NOD mice or mice of other strains were immunized in the hind foot pads with 0.1 ml of an emulsion containing 25 μg peptide in complete Freund's adjuvant (CFA; Difco, Detroit, Mich.) mixed with an equal volume of phosphate-buffered saline (PBS). The draining popliteal lymph nodes were removed 10 days later and suspensions of lymphocytes in triplicate cultures were tested for proliferation in the presence of the various peptides (5 μg/ml) using the incorporation of [^3H]-thymidine as described (Elias et al., 1991). The results are shown as the stimulation index (SI): the ratio of the mean cpm in the presence of the test peptide to the mean cpm of control cultures without the peptide. Standard errors were always less than 10% of the means.
Spontaneous T cell responses in pre-diabetic NOD mice were detected to the mouse p277 peptide (Elias et al., 1991; Birk et al., 1996) and to larger fragments of the mouse hsp60 molecule that contained the mouse p277 sequence (Birk et al., 1996). […] Other peptides immunogenic for NOD mice are the MT-p278 peptide (residues 458-474 in the Mycobacterial hsp60 molecule), and GAD-p35 (residues 524-543 in the GAD65 molecule).

Experiment [2] concerns spleens of female NOD mice. Description: Spontaneous T-cell responses in spleens of female NOD mice (longitudinal study). The class given is cell-based. The note with it: female NOD mice at ages 3-16 weeks.
In the next experiment the test system is peripheral blood T-cells. Description: Peripheral blood T-cell proliferation of IDDM patients and healthy controls to hsp60 and hsp60 synthetic peptides (Example 5). The experiment is classed as cell-based, human. The note with it: 26 newly diagnosed IDDM patients; peptides 20 μg/ml, 7 days.
The test system of another experiment is NOD mice. The note with it: s.c. in IFA; young NOD mice or 12-17 week old NOD mice with advanced insulitis; cited from earlier work.
A further experiment concerns C57BL/KsJ mice. The settings on record: mice that had received earlier a very low dose of STZ; cited from earlier work.

Take EEIAQVATISANGDKDIGNI [mouse p12]: in the experiment on female NOD mice, the development of diabetes result is recorded as “significantly protected; also recorded: effective in inhibiting the development of diabetes”. Further, the “antibody titers of the IgG1 and IgG2b isotypes” value (“antibody titers” for short) in experiment [1] was “effective in inducing strong antibody titers”. The “immunogenicity (T-cell proliferative response)” value (from here on “immunogenicity”) with draining lymph nodes is “strong response”. For the same substance, the “spontaneous T-cell responses” value in experiment [2] is listed as “no spontaneous responses”.

In the case of EGDEATGANIVKVALEA [MT-p278], the development of diabetes result in the experiment with female NOD mice is “no different than was treatment with IFA alone”. Further, the “mice that made specific IgG1 antibodies” value in experiment [1] (10 individual mice per group, ELISA) is “only two of the ten”. Also, the “titers of IgG2b antibodies” value in experiment [1] (compared with mouse p12 and mouse p277 groups) was “significantly lower titers”. In addition, the “antibody titers” value in experiment [1] is given as “did not respond as strongly”. For the same substance, in the experiment on draining lymph nodes, the “immunogenicity” value was “as strongly immunogenic as are mouse p277 and mouse p12”. In experiment [2], the “spontaneous T-cell responses” value is reported as “spontaneous responses were detected”.

Take “KAPGFGDNRKNQLKDMAIAT [p21, human hsp60 residues 301-320]”: in the experiment on peripheral blood T-cells, the “T-cell proliferative response of IDDM patients (S.I. 2 or greater positive)” value is “no IDDM patients responded”.

Turning to “LVIIAEDVDGEALSTLVLNR [p19, human hsp60 residues 271-290]”, in the experiment on peripheral blood T-cells, the “T-cell proliferative response of IDDM patients (S.I. 2 or greater positive)” value is on record as “no IDDM patients responded”.

With “VLGGGCALLRCIPALDSLTPANED (cysteine pairing not given here) [p277, human hsp60 residues 437-460]”, in the experiment with female NOD mice, the development of diabetes entry was “significantly protected”. Moreover, in the experiment on NOD mice, the disease progression result was “arrest of disease progression”. Besides, in the experiment on C57BL/KsJ mice, the “development of autoimmune diabetes” value is recorded as “aborted the development of autoimmune diabetes”.

As to “mouse p277: mouse variant of p277, mouse hsp60 437-460; differs from human by 1 amino acid (VLGGGCALLRCIPALDSLKPANED; UniProt P63038 437-460, looked up, fragment)”, the development of diabetes result with female NOD mice is listed as “effective in inhibiting the development of diabetes”. Further, in experiment [1], the “antibody titers” value is on record as “effective in inducing strong antibody titers”. In the experiment with draining lymph nodes, the “immunogenicity” value was “strong response”. Besides, the “spontaneous T-cell responses” value in experiment [2] is given as “spontaneous responses were detected”.
